# Measurements reported in ChEMBL document CHEMBL1201862, “PubChem BioAssay data set” (2004).
# Activity calls are given as the source filed them.
# Key:
# [1] = HIV-1 AD8 envelope cell-cell fusion blockers – cherry-pick, dose response (AID 652062); assay type: functional, cell-based;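 further: luciferase signal from cell-cell fusion driven by HIV-1 clade B AD8 Env; potency is for inhibitors of fusion seen as a drop in luminescence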
# [2] = blockers of HIV-1 envelope-mediated cell-cell fusion – cherry-pick, dose response (AID 652057); assay type: functional, cell-based
# [3] = molecular target: T1, Polyadenylate-binding protein 1 (Homo sapiens, UniProt P11940); test: MLLE domain peptide-binding blockers, IC50 – biochemical, fluorescence polarization, FITC-PAM2 peptide, dose response (AID 602259); assay type: functional; settings: read-out: IC50_Mean
# T1 sequence (P11940 whole entry, the tested form may be a part): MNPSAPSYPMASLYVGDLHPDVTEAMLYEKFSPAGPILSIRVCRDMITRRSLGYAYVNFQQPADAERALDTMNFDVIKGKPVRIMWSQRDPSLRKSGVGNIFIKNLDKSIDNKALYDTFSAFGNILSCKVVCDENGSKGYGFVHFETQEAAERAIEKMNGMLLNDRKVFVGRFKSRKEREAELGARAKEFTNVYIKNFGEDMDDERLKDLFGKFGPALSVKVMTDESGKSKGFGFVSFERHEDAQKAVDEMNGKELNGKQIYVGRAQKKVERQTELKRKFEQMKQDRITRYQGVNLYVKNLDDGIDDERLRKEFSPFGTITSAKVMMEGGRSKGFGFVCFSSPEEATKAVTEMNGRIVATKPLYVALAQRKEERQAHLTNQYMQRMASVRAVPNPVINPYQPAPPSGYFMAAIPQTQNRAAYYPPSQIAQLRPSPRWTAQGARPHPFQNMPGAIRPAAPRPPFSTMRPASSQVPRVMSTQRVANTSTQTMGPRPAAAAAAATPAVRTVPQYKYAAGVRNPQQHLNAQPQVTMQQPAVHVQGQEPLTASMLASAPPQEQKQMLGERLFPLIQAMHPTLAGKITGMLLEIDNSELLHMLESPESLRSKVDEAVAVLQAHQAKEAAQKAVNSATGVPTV
# [4] = molecular target: T1, Polyadenylate-binding protein 1; test: MLLE binding blockers, Cy5 peptide tracer – biochemical, fluorescence polarization, Cy5-PAM2 peptide, secondary, miRNA deadenylation inhibitor project, dose response (AID 602260); assay type: functional; settings: read-out: IC50_Mean
# Fatty acid synthase [5] = molecular target: T2, Fatty acid synthase (Homo sapiens, UniProt P49327); test: inhibition of human FAS-TE enzyme activity – biochemical, kinetic fluorescence intensity, dose response (AID 624326); assay type: functional;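 further: rate of fluorescence rise from hydrolysis of a fluorogenic O-methyl fluorescein ester substrate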
# T2 sequence (P49327 whole entry): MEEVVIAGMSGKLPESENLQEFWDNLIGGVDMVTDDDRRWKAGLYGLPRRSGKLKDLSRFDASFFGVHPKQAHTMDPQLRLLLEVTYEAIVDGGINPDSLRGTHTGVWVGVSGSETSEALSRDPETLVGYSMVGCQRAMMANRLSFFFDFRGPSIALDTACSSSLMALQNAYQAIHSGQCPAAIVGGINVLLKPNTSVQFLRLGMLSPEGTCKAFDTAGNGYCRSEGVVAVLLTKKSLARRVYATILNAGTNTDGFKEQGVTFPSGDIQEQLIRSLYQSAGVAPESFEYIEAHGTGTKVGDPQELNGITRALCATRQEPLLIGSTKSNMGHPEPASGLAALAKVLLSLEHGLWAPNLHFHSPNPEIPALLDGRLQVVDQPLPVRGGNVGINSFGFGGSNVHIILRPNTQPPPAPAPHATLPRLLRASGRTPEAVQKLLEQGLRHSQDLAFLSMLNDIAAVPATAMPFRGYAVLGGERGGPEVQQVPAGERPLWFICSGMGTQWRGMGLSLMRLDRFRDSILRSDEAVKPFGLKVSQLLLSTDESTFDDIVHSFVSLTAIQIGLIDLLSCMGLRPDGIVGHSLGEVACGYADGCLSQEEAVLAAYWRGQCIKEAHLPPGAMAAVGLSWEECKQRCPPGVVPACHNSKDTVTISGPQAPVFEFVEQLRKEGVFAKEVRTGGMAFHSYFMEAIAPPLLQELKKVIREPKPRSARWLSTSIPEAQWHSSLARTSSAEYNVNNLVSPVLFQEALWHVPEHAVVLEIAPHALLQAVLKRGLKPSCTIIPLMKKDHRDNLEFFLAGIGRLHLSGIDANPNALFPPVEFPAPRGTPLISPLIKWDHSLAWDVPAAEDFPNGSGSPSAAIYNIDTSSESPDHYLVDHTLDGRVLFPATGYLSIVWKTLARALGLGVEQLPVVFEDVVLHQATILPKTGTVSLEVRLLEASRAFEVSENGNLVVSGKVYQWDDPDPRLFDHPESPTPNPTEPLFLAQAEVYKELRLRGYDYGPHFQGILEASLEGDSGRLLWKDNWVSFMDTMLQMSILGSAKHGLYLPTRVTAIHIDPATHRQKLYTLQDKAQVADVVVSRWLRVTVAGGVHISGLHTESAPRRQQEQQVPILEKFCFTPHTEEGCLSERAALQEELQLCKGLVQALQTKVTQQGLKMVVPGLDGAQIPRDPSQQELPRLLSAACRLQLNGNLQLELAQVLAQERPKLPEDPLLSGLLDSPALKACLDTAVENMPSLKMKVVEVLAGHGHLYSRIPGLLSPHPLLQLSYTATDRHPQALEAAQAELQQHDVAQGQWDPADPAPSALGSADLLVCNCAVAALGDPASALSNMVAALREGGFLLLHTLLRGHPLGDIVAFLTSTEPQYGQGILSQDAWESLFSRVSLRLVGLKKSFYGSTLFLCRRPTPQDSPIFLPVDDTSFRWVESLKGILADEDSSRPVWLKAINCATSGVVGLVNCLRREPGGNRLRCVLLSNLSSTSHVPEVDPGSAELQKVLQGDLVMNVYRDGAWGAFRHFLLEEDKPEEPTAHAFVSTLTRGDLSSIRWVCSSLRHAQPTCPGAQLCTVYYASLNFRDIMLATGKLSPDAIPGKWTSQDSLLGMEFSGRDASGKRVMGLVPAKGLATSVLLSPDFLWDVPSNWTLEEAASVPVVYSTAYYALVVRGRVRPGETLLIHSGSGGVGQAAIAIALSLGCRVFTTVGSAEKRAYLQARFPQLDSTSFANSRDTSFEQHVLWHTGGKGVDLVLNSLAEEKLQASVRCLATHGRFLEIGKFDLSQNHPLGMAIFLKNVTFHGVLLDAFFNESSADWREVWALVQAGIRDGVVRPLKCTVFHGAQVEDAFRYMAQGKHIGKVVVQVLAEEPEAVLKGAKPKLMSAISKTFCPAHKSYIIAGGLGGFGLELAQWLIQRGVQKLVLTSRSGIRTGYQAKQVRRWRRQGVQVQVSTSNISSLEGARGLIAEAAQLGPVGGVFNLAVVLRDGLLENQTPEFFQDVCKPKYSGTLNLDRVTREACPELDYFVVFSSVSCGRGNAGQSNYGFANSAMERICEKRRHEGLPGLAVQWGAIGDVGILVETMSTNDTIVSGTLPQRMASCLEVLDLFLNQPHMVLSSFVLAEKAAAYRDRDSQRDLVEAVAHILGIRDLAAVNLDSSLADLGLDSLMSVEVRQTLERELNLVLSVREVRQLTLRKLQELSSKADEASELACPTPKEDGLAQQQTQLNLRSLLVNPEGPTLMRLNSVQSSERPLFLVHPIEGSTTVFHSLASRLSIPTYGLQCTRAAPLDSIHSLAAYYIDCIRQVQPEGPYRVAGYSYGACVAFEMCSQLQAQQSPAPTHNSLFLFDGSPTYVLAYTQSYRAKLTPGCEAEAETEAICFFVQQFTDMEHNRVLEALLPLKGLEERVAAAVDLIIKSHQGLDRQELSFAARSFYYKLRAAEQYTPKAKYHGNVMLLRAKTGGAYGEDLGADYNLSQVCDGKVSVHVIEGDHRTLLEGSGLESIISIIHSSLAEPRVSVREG
# Fatty acid synthase [6] = molecular target: T2, Fatty acid synthase; test: inhibition of human FAS-TE enzyme activity – biochemical, endpoint fluorescence intensity, uHTS hits, dose response (AID 624327); assay type: functional;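 further: fluorescence from hydrolysis of an O-methyl fluorescein acyl ester substrate by the enzyme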
# cells [7] = assay type: functional, cell-based
# cells [8] = assay type: functional, cell-based; remark: listed apart in the source
# [9] = fluconazole-exposed Candida albicans growth modulators – fluorescence, retest, confirmation (AID 2467); assay type: functional, cell-based
# [10] = NIH-3T3 fibroblast cytotoxicity, dose response, cytotoxicity control, cell-based, fluorescence, Alamar Blue, secondary assay (AID 2327); assay type: functional;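 further: NIH-3T3 mouse fibroblasts cultured with fluconazole at 8 µg/mL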
# [11] = NIH3T3 cell viability loss – ATP luminescence, mouse fibroblasts, counter-screen, dose response (AID 2010); assay type: functional, cell-based;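 further: cells exposed to compound for about 90 hours before reading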
# [12] = Trypanosoma cruzi growth suppression in host cells – NIH3T3 host cells, beta-gal luminescence, confirmation (AID 2044); assay type: functional, cell-based;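 further: intracellular parasites grown in NIH/3T3 mouse fibroblasts as host cells; luminescent beta-galactosidase reporter signal from transgenic T. cruzi replicating inside host cells; inhibitors lower the luminescence signal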
# cells [13] = assay type: functional
# Cytochrome P450 2C9 = Cytochrome P450 2C9 (Homo sapiens, UniProt P11712)
# Sequence of Cytochrome P450 2C9 (P11712 whole entry): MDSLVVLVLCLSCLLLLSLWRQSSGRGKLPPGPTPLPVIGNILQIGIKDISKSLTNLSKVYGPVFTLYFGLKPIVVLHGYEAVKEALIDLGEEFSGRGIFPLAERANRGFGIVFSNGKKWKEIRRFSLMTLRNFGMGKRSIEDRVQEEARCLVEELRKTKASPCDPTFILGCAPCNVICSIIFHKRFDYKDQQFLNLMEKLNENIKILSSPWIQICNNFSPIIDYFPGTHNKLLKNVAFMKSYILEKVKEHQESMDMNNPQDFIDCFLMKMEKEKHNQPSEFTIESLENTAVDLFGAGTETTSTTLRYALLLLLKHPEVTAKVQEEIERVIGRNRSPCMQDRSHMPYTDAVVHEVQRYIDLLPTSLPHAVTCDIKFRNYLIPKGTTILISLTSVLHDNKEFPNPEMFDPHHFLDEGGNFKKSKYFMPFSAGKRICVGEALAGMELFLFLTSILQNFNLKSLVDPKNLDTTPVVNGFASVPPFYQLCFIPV
# Cytochrome P450 2C19 = Cytochrome P450 2C19 (Homo sapiens, UniProt P33261); test: Cytochrome panel assay with activity outcomes. Panel member name: p450-cyp2c19 Compounds with AC50 equal or less than 10 uM are considered active; assay type: functional; settings: read-out: AC50
# Sequence of Cytochrome P450 2C19 (P33261 whole entry): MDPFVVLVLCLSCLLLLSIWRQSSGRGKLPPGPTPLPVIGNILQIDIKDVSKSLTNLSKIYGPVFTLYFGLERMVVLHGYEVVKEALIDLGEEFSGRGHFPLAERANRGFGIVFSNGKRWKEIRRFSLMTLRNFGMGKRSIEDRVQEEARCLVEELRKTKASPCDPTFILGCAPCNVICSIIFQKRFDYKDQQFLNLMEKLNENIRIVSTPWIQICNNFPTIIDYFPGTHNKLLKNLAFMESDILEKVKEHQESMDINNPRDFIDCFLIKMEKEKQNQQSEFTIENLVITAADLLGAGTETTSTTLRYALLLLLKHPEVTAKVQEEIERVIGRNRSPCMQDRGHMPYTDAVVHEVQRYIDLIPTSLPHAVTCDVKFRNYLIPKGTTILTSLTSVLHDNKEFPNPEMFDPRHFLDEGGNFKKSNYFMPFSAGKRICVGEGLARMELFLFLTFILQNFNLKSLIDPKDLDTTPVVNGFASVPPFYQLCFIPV
# INS1 = test: INS-1E survival protection against cytokine death – cell-based, luminescence, retest, dose response (AID 449756); assay type: functional; settings: Rattus norvegicus;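 further: cell death triggered by IL-1 beta plus TNF-alpha plus IFN-gamma mixture; protective hits raise ATP signal compared with cytokine alone wells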
# [14] = molecular target: Heat shock protein HSP 90-alpha (Homo sapiens, UniProt P07900); assay type: functional, organism-based
# [15] = test system: Streptococcus sp. 'group A'; test: Streptococcus pyogenes SK(-)GAS viability under kanamycin – luminescence, BacTiterGlo, confirmation, counter-screen for streptokinase expression inhibitor project, dose response (AID 1900); assay type: functional, organism-based
# Streptococcus = test: GAS UMAA2166 growth inhibition – luminescence, BacTiterGlo, counter-screen for streptokinase expression inhibitor project, dose response (AID 1915); assay type: functional, organism-based;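 further: potency for reduction of bacterial viability or growth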
# [16] = off-target signal loss in HeLa-CEM21 co-culture – HeLa F-luc CTL cells, cherry-picked, counter-screen for HIV-1 Env fusion inhibitor project, dose response (AID 652040); assay type: functional, cell-based;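 further: potency for signal decrease marking cytotoxic or nonspecific inhibition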
# [17] = blockers of HIV-1 ZM109 envelope-driven cell-cell fusion – HeLa effector, CEM target cells, luciferase, cherry-pick, dose response (AID 652058); assay type: functional, cell-based;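 further: luciferase signal from HIV-1 Env mediated cell-cell fusion of effector and target cells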
smiles,measurement,setting,value
Cc1ccc(S(=O)(=O)NCC(=O)OCC(=O)NCc2ccc3c(c2)OCO3)cc1,AC50,[1],5.22 µM (active)
same,AC50,[2],24 µM (active)
CC(OC(=O)CSc1ccc([N+](=O)[O-])cc1)C(=O)NC1CC1 (stereo unspecified),IC50,[3],> 66 µM (inactive)
same,IC50,[4],> 66 µM (inactive)
O=C(CCNC(=O)c1ccc([N+](=O)[O-])cc1)NCCc1ccc(Cl)cc1,IC50,Fatty acid synthase [5],7.38 µM (active)
same,IC50,Fatty acid synthase [6],8.77 µM (active)
COc1ccc(NC(=O)c2cccc(NC(=O)c3ccco3)c2)c(OC)c1,EC50,cells [7],> 350 µM (not active)
same,EC50,cells [8],> 350 µM (not active)
CC(C)c1ccc(NC(=O)Cc2cn(C)c3ccccc23)cc1,EC50,[9],> 38 µM (not active)
same,EC50,[10],> 150 µM (inactive)
Cn1c(-c2ccccc2)cnc1NCc1cccc([N+](=O)[O-])c1,IC50,Fatty acid synthase [5],8.79 µM (active)
same,IC50,Fatty acid synthase [6],6.81 µM (active)
CC(NC(=O)CSC1=NCCS1)c1ccccc1 (stereo unspecified),IC50,[3],> 66 µM (inactive)
same,IC50,[4],> 66 µM (inactive)
Cc1cc(C)cc(N2C(=O)CC(Sc3ccccc3C(=O)O)C2=O)c1 (stereo unspecified),IC50,[3],> 66 µM (inactive)
same,IC50,[4],> 66 µM (inactive)
O=C(CN1CCN(c2ccccc2)CC1)Nc1cccc([N+](=O)[O-])c1,IC50,Fatty acid synthase [5],10.7 µM (active)
same,IC50,Fatty acid synthase [6],9.24 µM (active)
O=C(NC(=S)Nc1ccc(Oc2ccccc2)cc1)c1ccc(Cl)cc1,IC50,[3],> 66 µM (inactive)
same,EC50,[11],> 60 µM (not active)
same,EC50,[12],2.34 µM (active)
same,IC50,[4],> 66 µM (inactive)
Cc1c(Br)c([N+](=O)[O-])nn1CC(=O)Nc1ccc(Cc2ccncc2)cc1,IC50,Fatty acid synthase [5],8.12 µM (active)
same,IC50,Fatty acid synthase [6],9.53 µM (active)
O=C(COC(=O)CCc1c[nH]c2ccccc12)Nc1cc([N+](=O)[O-])ccc1Cl,IC50,Fatty acid synthase [5],10.7 µM (active)
same,IC50,Fatty acid synthase [6],15.2 µM (active)
same,IC50,cells [13],4.54 µM (active)
COCCNC(=O)c1sc2nc(-c3ccccc3)cn2c1C,AC50,Cytochrome P450 2C9,28.2 µM (inconclusive)
same,AC50,Cytochrome P450 2C19,20 µM (inconclusive)
same,EC50,cells [7],> 350 µM (not active)
same,EC50,cells [8],> 350 µM (not active)
O=C(Cc1ccc([N+](=O)[O-])cc1)NNC(=O)c1ccc2c(c1)OCO2,EC50,[9],> 38 µM (not active)
same,EC50,[10],> 150 µM (inactive)
O=C(Nc1cccc(C(F)(F)F)c1)Oc1ccc(Cl)c2cccnc12,AC50,INS1,7.15 µM (active)
same,AC50,[14],3.86 µM (active)
same,EC50,[15],2.54 µM (active)
same,EC50,Streptococcus,4.98 µM (active)
Nc1c(C(=O)Nc2ccc3c(c2)OCCO3)nnn1Cc1ccccc1Cl,AC50,INS1,0.653 µM (active)
same,AC50,[14],10.3 µM (active)
COc1ccc(Cn2nnnc2C(c2cc3cc(C)cc(C)c3nc2O)N2CCOCC2)cc1 (stereo unspecified),AC50,[1],5.51 µM (active)
same,AC50,[2],3.39 µM (active)
same,AC50,[16],4.7 µM (active)
same,AC50,[17],4.35 µM (active)
O=C(CSc1nc(O)c(Cc2ccccc2)c(=O)[nH]1)Nc1ccccc1,IC50,[3],> 66 µM (inactive)
same,IC50,[4],> 66 µM (inactive)
CCN(CC)S(=O)(=O)c1ccc(N2CCOCC2)c(NC(=O)c2cccc3ccccc23)c1,EC50,cells [7],> 350 µM (not active)
same,EC50,cells [8],> 350 µM (not active)
N#Cc1cc(-c2ccccc2)cn(Cc2c(Cl)cccc2Cl)c1=O,IC50,Fatty acid synthase [5],8.23 µM (active)
same,IC50,Fatty acid synthase [6],7.42 µM (active)
O=C(COc1ccccc1)Nc1nc(-c2ccncc2)cs1,IC50,[3],> 66 µM (inactive)
same,IC50,[4],> 66 µM (inactive)
